According to patent US8602544B2, “Ink set, ink cartridge, ink jet recording method, and ink jet recording apparatus” (Canon Kabushiki Kaisha, priority 2009, dated 2013):

Assay: Determination of poor medium/good medium (solubility of the dye in a water-soluble organic solvent)
Type: physicochemical
Method: It is determined by the solubility of the dye whether a certain water-soluble organic solvent is a good medium or a poor medium with respect to a dye to be used together. In other words, the good medium and the poor medium are indexes which indicate the relationship between the water-soluble organic solvent and the dye from the viewpoint of the solubility.
More specifically, it can be determined in the following way whether a certain water-soluble organic solvent is a good medium or a poor medium with respect to a dye being an object to be determined. The water-soluble organic solvent of an object to be determined and a sufficient amount of a dye are placed into a sample bottle having a capacity of approximately 20 cc, and the liquid is stirred overnight. […] Because the supernatant liquid after the centrifugal separation is a saturated solution of the dye, the solubility of the dye can be determined by measuring the absorbance of the liquid, and calculating the ratio of the measured absorbance to the absorbance of an aqueous solution of the dye with a known concentration.
In order to evaluate the reliability of the ink, it was determined what type of relationship there was between a dye and a water-soluble organic solvent which were contained in an ink. A water-soluble organic solvent being an object to be determined (when the water-soluble organic compound is solid, it was a 20% aqueous solution of the solid) and a sufficient amount of the dye were placed into a sample bottle having a capacity of 20 cc, and the liquid was stirred overnight. […] Then, the solubility of the dye with respect to the water-soluble organic solvent being the object to be determined (or 20% aqueous solution) was determined from the ratio of the measured absorbance to the previously measured absorbance of an aqueous solution having a predetermined concentration of the dye. From the obtained solubility, a water-soluble organic solvent having a solubility of 5% or less was determined to be a poor medium, and a water-soluble organic solvent having a solubility of more than 5% was determined to be a good medium.

[1] = 1-(2-hydroxyethyl)-2-pyrrolidinone
[2] = Triethylene glycol monobutyl ether

SMILES | Determination results for poor medium/good medium (solubility of the dye) (1,2-hexandiol) | Determination results for poor medium/good medium (solubility of the dye) (1,5-pentanediol) | Determination results for poor medium/good medium (solubility of the dye) [1] | Determination results for poor medium/good medium (solubility of the dye) (2-methyl-1,3-propanediol) | Determination results for poor medium/good medium (solubility of the dye) (Diethylene glycol) | Determination results for poor medium/good medium (solubility of the dye) (Ethylene glycol) | Determination results for poor medium/good medium (solubility of the dye) (Glycerin) | Determination results for poor medium/good medium (solubility of the dye) (Propylene glycol) | Determination results for poor medium/good medium (solubility of the dye) (Triethylene glycol) | Determination results for poor medium/good medium (solubility of the dye) [2]
Cn1c(=O)c(C(=O)c2cccc(S(=O)(=O)O)c2)c2c3c(c(Nc4cc(Nc5nc(NCCNc6nc(Nc7cc(Nc8ccc9c%10c8C(=O)c8ccccc8-c%10c(C(=O)c8cccc(S(=O)(=O)O)c8)c(=O)n9C)c(S(=O)(=O)O)cc7S(=O)(=O)O)nc(Oc7ccc(S(=O)(=O)O)cc7)n6)nc(Oc6ccc(S(=O)(=O)O)cc6)n5)c(S(=O)(=O)O)cc4S(=O)(=O)O)ccc31)C(=O)c1ccccc1-2 [Exemplified compound M1] | poor (a water-soluble organic solvent having a solubility of 5% or less was determined to be a poor medium) | poor (a water-soluble organic solvent having a solubility of 5% or less was determined to be a poor medium) | good (a water-soluble organic solvent having a solubility of more than 5% was determined to be a good medium) | poor (a water-soluble organic solvent having a solubility of 5% or less was determined to be a poor medium) | good (a water-soluble organic solvent having a solubility of more than 5% was determined to be a good medium) | good (a water-soluble organic solvent having a solubility of more than 5% was determined to be a good medium) | good (a water-soluble organic solvent having a solubility of more than 5% was determined to be a good medium) | good (a water-soluble organic solvent having a solubility of more than 5% was determined to be a good medium) | good (a water-soluble organic solvent having a solubility of more than 5% was determined to be a good medium) | good (a water-soluble organic solvent having a solubility of more than 5% was determined to be a good medium)
CCc1cc(C)c(S(=O)(=O)O)c(CC)c1Nc1nc(N(c2nc3ccc(S(=O)(=O)O)cc3s2)c2c(CC)cc(C)c(S(=O)(=O)O)c2CC)cc(C)c1N=Nc1c(C#N)c(C(C)(C)C)nn1-c1nc2ccc(S(=O)(=O)O)cc2s1 [Exemplified compound M2] | good (a water-soluble organic solvent having a solubility of more than 5% was determined to be a good medium) | good (a water-soluble organic solvent having a solubility of more than 5% was determined to be a good medium) | good (a water-soluble organic solvent having a solubility of more than 5% was determined to be a good medium) | good (a water-soluble organic solvent having a solubility of more than 5% was determined to be a good medium) | good (a water-soluble organic solvent having a solubility of more than 5% was determined to be a good medium) | good (a water-soluble organic solvent having a solubility of more than 5% was determined to be a good medium) | good (a water-soluble organic solvent having a solubility of more than 5% was determined to be a good medium) | good (a water-soluble organic solvent having a solubility of more than 5% was determined to be a good medium) | good (a water-soluble organic solvent having a solubility of more than 5% was determined to be a good medium) | good (a water-soluble organic solvent having a solubility of more than 5% was determined to be a good medium)
